# Measurements from publication PMC5059851, “Inhibition of Hedgehog-dependent tumors and cancer stem cells by a newly identified naturally occurring chemotype” (Cell Death & Disease, 2016).
# What was measured:
# [1] = system: Hh target genes (Gli1 and others) in Ptch1^−/− MEFs; assay: qRT-PCR of endogenous Hh target genes in Ptch1−/− MEFs; type: cell-based, mouse; details: 5 μM, 48 h
# Source text: For this reason, we focused further studies only on 12. To investigate the inhibitory properties of 12 on Hh pathway, we analyzed endogenous Hh target gene activation in genetically defined Ptch1^−/− mouse embryonic fibroblasts (Ptch1^−/− MEFs) (Figure 2a). In these cells, constitutive activation of the Hh pathway is the consequence of the loss of repressive receptor Ptch1 gene, thus determining high expression levels of Hh target.
# Figure 2 Compound 12 inhibits Hh signaling without affecting AP1/Jun and WNT/β-Catenin pathways. (a) The graphs show the Hh target genes expression levels in Ptch1^−/− MEFs treated for 48 h with 12 or DMSO as control. mRNA levels were determined by quantitative real-time PCR (qRT-PCR) normalized to endogenous control (β2-microglobulin and HPRT). Pfkfb3 gene was used as negative control. *P<0.05 versus CTR. […]
# (§1) Total RNA was isolated with Trizol (Invitrogen/Life Technologies, Carlsbad, CA, USA) and reverse transcribed with SensiFAST cDNA Synthesis Kit (Bioline Reagents Limited, London, UK). Quantitative real-time PCR (Q-PCR) analysis of Gli1, Gli2, Ptch1, Bmp2, Pfkfb3, CycD1, CycD2, Pcna, Oct4, Nanog, β-2 microglobulin, β-actin and HPRT mRNA expression was performed on each cDNA sample using the VIIA7 Real Time PCR System employing Assay-on-Demand Reagents (Life Technologies). […]
# human Smo D473H = molecular target: T1, human Smo D473H (Homo sapiens, UniProt Q99835, D473H); assay: Bodipy-Cyclopamine (BC) binding assay, HEK293T cells transfected with human Smo D473H
# T1 construct: Myc-DDK; expressed in transfected cells; host or cells: HEK293T
# Procedure: (§2) Cells were washed in PBS supplemented with 0.5% fetal bovine serum, fixed in 4% paraformaldehyde in phosphate-buffered saline (PBS) for 10 min, and incubated for 2 h at 37 °C both in the same medium supplemented with Bodipy-Cyclopamine (5 nM) and the studied compounds. The cells were permeabilized with Triton X100 (Sigma) 0.2%. Dako Fluorescent mounting (Dako, Carpinteria, CA, USA) was used as mounting medium and Hoechst reagent for staining of the cell nuclei. Bodipy (green) and Hoechst (blue) signals were analyzed in three to four representative fields per coverslip (× 20 magnification, 1000 cells/field). Data were expressed as percentage of BC incorporation observed with BC alone.[95]
# [2] = system: Hh pathway readouts, stemness markers and growth genes in MB stem-like cells; assay: qRT-PCR of Hh, proliferation and stemness targets in MB stem-like cells; type: cell-based, mouse; details: 48 h
# Procedure: Figure 5 Compound 12 inhibition of Hh-dependent MB tumor cell growth. […] (a and b) After the indicated times, a trypan blue count was performed to determine the growth rate of viable cells. (c) Gli1 mRNA expression levels were determined by qRT-PCR normalized to endogenous control (β2-microglobulin and HPRT). (d–f) Compound 12 inhibits MB-SCs self-renewal. (d) Suspension of single MB-SCs isolated from Ptch1^+/− mice were cultured in stem cell medium to allow the formation of primary neurospheres. Primary neurospheres were dissociated and treated with increasing concentrations of compound 12, Cyclopamine or DMSO only. After 7 days of treatment, the number of secondary neurospheres derived from a known number of single cells was counted. The self-renewal MB-SCs' capability is expressed as percentage of neurosphere-forming cells. […]
# as §1
# murine Smo D477G = molecular target: T2, murine Smo D477G (Mus musculus, UniProt P56726, D477G); assay: Bodipy-Cyclopamine (BC) binding assay, HEK293T cells transfected with mouse Smo D477G
# T2 construct: Flag; expressed in transfected cells; host or cells: HEK293T
# Procedure: as §2
# BC binding (green) is visualized using fluorescence microscopy in a representative field (a). […] Quantitative data are the average BC intensity from five independent fluorescence microscopy images.
# [3] = system: primary MB cells from Ptch1^+/− mice; assay: Trypan blue growth count of primary MB cells from Ptch1+/− mice; type: cell-based, mouse; details: ex vivo cultures from Ptch1^+/− mice MBs
# Procedure: Cell proliferation was evaluated by BrdU detection (Roche, Welwyn Garden City, UK). Briefly, after the BrdU pulse (24 h for GCPs) cells were fixed with 4% paraformaldehyde and permeabilized with 0.2% Triton X-100, and BrdU detection was performed according to the manufacturer's instructions. Nuclei were counterstained with Hoechst reagent. At least 500 nuclei were counted in triplicate, and the number of BrdU-positive nuclei was recorded. To determine the growth rate of viable cells, a trypan blue count was performed after a treatment period of 24–48–72 h with studied compound.
# [4] = BC (5 nM) displacement, transiently transfected 293T cells
# T1 sequence (Q99835 28-787 D473H): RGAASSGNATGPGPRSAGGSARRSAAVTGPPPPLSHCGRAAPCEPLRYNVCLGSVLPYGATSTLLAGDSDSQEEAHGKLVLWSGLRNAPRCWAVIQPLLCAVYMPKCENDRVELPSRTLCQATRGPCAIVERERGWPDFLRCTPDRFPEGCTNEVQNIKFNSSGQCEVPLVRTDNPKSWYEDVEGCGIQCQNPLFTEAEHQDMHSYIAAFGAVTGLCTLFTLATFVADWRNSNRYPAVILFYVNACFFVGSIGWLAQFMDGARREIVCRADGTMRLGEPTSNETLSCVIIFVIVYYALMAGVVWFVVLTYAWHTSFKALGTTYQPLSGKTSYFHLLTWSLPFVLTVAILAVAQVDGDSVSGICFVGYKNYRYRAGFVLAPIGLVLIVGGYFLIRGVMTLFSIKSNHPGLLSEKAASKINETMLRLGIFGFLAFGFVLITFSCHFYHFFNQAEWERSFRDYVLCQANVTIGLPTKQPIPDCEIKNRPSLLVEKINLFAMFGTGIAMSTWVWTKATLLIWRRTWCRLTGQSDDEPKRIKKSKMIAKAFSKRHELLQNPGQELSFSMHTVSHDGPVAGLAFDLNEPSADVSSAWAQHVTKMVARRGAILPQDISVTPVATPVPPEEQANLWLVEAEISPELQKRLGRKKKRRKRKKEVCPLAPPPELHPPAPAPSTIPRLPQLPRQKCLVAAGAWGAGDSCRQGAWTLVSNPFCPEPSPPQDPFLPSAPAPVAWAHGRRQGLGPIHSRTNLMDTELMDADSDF
# T2 sequence (P56726 33-793 D477G): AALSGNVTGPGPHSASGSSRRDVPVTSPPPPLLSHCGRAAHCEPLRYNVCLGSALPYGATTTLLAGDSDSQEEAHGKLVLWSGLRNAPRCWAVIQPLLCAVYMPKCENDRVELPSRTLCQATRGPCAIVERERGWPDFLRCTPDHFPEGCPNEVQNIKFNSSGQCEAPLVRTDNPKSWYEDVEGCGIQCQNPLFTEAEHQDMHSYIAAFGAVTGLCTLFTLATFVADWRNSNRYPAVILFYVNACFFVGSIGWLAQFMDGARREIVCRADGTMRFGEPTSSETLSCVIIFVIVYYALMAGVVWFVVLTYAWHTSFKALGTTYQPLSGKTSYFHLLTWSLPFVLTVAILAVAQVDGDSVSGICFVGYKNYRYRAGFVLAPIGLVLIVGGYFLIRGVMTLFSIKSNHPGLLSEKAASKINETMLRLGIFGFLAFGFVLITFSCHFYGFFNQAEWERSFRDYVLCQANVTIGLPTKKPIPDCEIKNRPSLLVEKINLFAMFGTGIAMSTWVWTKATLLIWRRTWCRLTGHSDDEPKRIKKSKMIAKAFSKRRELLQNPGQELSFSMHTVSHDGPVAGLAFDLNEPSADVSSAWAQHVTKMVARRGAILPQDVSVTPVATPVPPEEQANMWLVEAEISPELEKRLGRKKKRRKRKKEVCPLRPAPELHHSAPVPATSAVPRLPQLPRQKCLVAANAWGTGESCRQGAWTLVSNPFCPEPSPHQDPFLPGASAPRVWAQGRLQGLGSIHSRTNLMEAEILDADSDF
compound,measurement,setting,value
"COc1ccc(C=CC(=O)c2cc(OC)c(OC)cc2OC)cc1OC [Compound 12, 3-(3,4-dimethoxy-phenyl)-1-(2,4,5-trimethoxy-phenyl)-2-propen-1-one]","mRNA levels of endogenous Hh target genes, including Gli1",[1],significantly reduced
same,IC50,human Smo D473H; [4],22.7 µM
same,activity on the D473H drug-resistant Smo mutant,human Smo D473H; BC displacement assay,active
same,Fold shift human Smo,human Smo D473H; IC50 Smo D473H / IC50 Smo WT,0.9257
same,loss of affinity for the resistant Smo mutants in binding assay,human Smo D473H; resistant Smo mutants versus WT,conserved the same affinity
same,"Hh pathway activity in MB stem-like cells (Gli1, Gli2, Ptch1, Nanog, Oct4, cyclins D1 and D2, Pcna mRNAs)",[2],reduced Hh pathway activity
same,IC50,murine Smo D477G; [4],56.7 µM
same,inhibition of BC binding to mouse Smo D477G mutant,"murine Smo D477G; HEK293T cells, various concentrations",significantly inhibited BC binding
same,Fold shift murine Smo,murine Smo D477G; IC50 Smo D477G / IC50 Smo WT,1.243
same,proliferation of primary MB cells,[3],significant inhibition of the proliferation
